Assay results published in PubChem BioAssay AID588482 (NMMLSC, 2011).
The source made the active and inactive calls.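 Rule for the calls: active = a percent response above zero, which rounds up to a positive score; inactive = the rest.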

These compounds were tested against Beta-adrenergic receptor kinase 1 (Homo sapiens) (UniProt P25098) (assay: GRK2 kinase inhibitors, rhodopsin substrate, late-stage follow-up, orthogonal assay for GRK2 aptamer-displacement inhibitor project, biochemical, set 2 (AID 588482)). Settings: GRK2 rhodopsin phosphorylation, 32P incorporation, SDS-PAGE; at 200 µM; stronger effect = higher value.
Beta-adrenergic receptor kinase 1 (Homo sapiens), sequence (P25098 whole entry, looked up): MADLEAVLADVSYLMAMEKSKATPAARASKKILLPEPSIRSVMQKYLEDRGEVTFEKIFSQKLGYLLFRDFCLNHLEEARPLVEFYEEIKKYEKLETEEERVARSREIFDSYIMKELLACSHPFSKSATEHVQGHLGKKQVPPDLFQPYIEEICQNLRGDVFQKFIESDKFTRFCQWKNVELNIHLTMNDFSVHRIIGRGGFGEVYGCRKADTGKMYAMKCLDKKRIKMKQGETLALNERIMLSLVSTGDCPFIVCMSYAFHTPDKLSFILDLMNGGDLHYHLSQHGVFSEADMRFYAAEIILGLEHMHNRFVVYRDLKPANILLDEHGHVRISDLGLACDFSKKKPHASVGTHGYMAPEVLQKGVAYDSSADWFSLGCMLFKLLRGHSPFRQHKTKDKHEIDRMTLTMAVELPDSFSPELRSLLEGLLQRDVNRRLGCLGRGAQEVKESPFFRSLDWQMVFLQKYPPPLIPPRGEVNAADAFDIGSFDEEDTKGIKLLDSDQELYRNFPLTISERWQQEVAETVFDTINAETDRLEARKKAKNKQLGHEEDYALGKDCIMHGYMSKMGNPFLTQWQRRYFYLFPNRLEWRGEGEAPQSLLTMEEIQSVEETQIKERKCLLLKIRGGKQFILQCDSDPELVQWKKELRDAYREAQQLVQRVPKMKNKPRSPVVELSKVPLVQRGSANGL

inhibition | Structure (SMILES)
-54% (inactive) | O=C(CSc1nc2ccccc2c(=O)n1-c1ccccc1)NC(=O)CN1CCCC1=O
46.8% | CC(CS(=O)(=O)c1ccc2c(c1)NC(=O)CS2)C(=O)NCc1ccccc1Cl (stereo not drawn)
11% | COc1ccc(Cl)cc1NC(=O)CCS(=O)(=O)c1ccc(Br)cc1
46.5% | O=C(O)Cc1ccc(-n2cccc2)cc1
-15.8% (inactive) | NS(=O)(=O)c1ccc(CCNC(=O)CCS(=O)(=O)c2ccc(Br)cc2)cc1
-20% (inactive) | CC(=O)N1CCN(Cc2nc3cc(Cl)ccc3c(=O)[nH]2)CC1
30.9% | COc1ccc([N+](=O)[O-])cc1NC(=O)CCS(=O)(=O)c1ccc(Br)cc1
-32.3% (inactive) | O=C(CCS(=O)(=O)c1ccc(Br)s1)Nc1ccccc1Br
8.45% | O=C(CCS(=O)(=O)c1ccc(Br)cc1)NCc1cccs1
-18.3% (inactive) | COC(=O)c1ccccc1NC(=O)CCS(=O)(=O)c1ccc(Br)s1
-90.5% (inactive) | COc1ccc(NC(=O)CCS(=O)(=O)c2ccc(Br)s2)cc1
-3.83% (inactive) | Cc1cc2ccccc2n1CCNC(=O)C(C)Oc1ccccc1 (stereo not drawn)
0.79% | CCOc1ccccc1NC(=O)CCS(=O)(=O)c1ccc(Br)cc1
-50.6% (inactive) | Cc1cccc(CCNC(=O)CCS(=O)(=O)c2ccc(Br)cc2)c1
59.3% | CCN(CC)c1ccc(NC(=O)CCS(=O)(=O)c2ccc(Br)cc2)c(C)c1
-30.2% (inactive) | Cc1ccc(CCNC(=O)CCS(=O)(=O)c2ccc(Br)cc2)cc1
11.4% | O=C(CCS(=O)(=O)c1ccc(Br)cc1)Nc1ccc(Br)cc1F
-29.5% (inactive) | COc1ccc(CCNC(=O)CCS(=O)(=O)c2ccc(Br)cc2)cc1OC
-28.6% (inactive) | CCOc1ccc(NC(=O)CCS(=O)(=O)c2ccc(Br)cc2)cc1
36.7% | C#CCSc1nc2sc3c(c2c(=O)n1C)CCC3
-42.4% (inactive) | O=C(CN1CCc2ccccc21)NC(=O)NCc1ccccc1
-7.11% (inactive) | Cc1ccccc1NC(=O)CCS(=O)(=O)c1ccc(Br)s1
-71.8% (inactive) | COC(=O)c1ccc(NC(=O)CCS(=O)(=O)c2ccc(Br)cc2)cc1
